Test results from patent publication US20250186396A1, “COMPOSITIONS AND METHODS FOR THE TREATMENT OF GLIOBLASTOMA WITH A DUAL TARGETING ANTI-TUMOR COMPOSITION” (Northwestern University, priority 2023, published 2025).

Key:
[1] = system: U87, PTEN-KO SF763 cells and 005 GSCs; experiment: Proliferation (CFSE) and colony formation assays; format: cell-based; conditions: BAPN 200 μM or SR9009 5 μM
Procedure: Proliferation (CFSE) assay. Cell proliferation was assessed using the CellTrace carboxy fluorescein succinimidyl ester (CFSE) Cell Proliferation Kit (Invitrogen, #C34554). Briefly, 1×10^6 cells were collected and incubated with CFSE working solution (1:1,000) for 20 minutes at 37° C. The staining was stopped by adding complete cell culture media. After washing, cells were cultured for 3 days with or without the treatment of BAPN (Sigma-Aldrich, #B-A3134, 200 μM), or SR9009 (Cayman, #11929, 5 μM) in the dark and used for flow cytometry analysis. The percentage of CFSE positive peaks over the undivided peak (generation 0) was analyzed using FlowJo v10.8.1.
Colony formation assay. 1×10^3 GBM cells were seeded in each well of 6-well plates with or without the treatment of BAPN (Sigma-Aldrich, #B-A3134, 200 μM), or SR9009 (Cayman, #11929, 5 μM). After 7-10 days, cells were fixed and stained with 0.5% crystal violet in 25% methanol for 1 hour. After three times washing by PBS, the plates were scanned, and the colony number was counted using ImageJ.

[2] = system: CT2A tumors; experiment: Immunofluorescence staining of CT2A tumors; format: in vivo, C57BL/6 mice; conditions: for intratumoral CD4+ T cells / intratumoral CD8+ T cells / intratumoral activated CD8+ (CD8+CD69+) T cells: CT2A model, BAPN 2 g/L in drinking water from day 4, SR9009 100 mg/kg i.p. daily for 10 days from day 7; for CX3CR1+ microglia in tumors / F4/80+ macrophages in tumors: CT2A tumors vs control, BAPN 2 g/L drinking water or SR9009 100 mg/kg i.p. daily 10 days
Procedure: Mice and Intracranial Xenograft Tumor Models. Female C57BL/6 mice at 3 to 4 weeks of age were purchased from the Jackson Laboratory (#0000664). All animals were grouped by 5 mice per cage and maintained in IVC System (San Diego, CA) for a week before the experiment. All animal experiments were performed with the approval of the Institutional Animal Care and Use Committee (IACUC) at Northwestern University. The intracranial xenograft tumor models were established previously. In brief, mice were anesthetized by isoflurane through IMPAC6 Anesthesia System. Then a dental drill was used to open a small hole in the skull of mice 1.2 mm anterior and 3.0 mm lateral to the bregma. Mice were placed into the stereotactic apparatus, and 5 μL 005 GSC, CT2A, or GL261 cells in FBS-free culture medium were injected into the right caudate nucleus 3 mm below the surface of the brain using a 10 μL Hamilton syringe with an unbeveled 30-gauge needle. The incision was closed using Vetbond glue. Meloxicam (20 mg/kg, daily) was subcutaneously injected for pain relief for 3 days after surgery. Mice received the treatment with BAPN (2 g/L in drinking water) on day 4, SR9009 (100 mg/kg body weight, i.p.) daily for 10 days beginning at day 7 post-orthotopic injection, anti-PD1 (10 mg/kg body weight, i.p.) on days 11, 14, and 17 post-orthotopic injection, and/or clodronate liposomes (200 μL, once every 3 days) starting at day 4 post-orthotopic injection. Mice with neurological deficits or moribund appearance were sacrificed according to the IACUC protocol. At the end of the experiment, the brains of mice were collected, either fixed in 4% paraformaldehyde (PFA) (ThermoFisher Scientific, #J61899.AK) after transcardiac perfusion with PBS for optimal cutting temperature (OCT)-cryosectioning or processed using the percoll density gradient cell separation method to isolate tumor-derived immune cells for flow cytometry analysis.
Immunofluorescence. Immunofluorescence was performed using a standard protocol that was previously established. In brief, slides from cryosections were kept at room temperature for 30 minutes and fixed in 10% PFA for 30 minutes prior to permeabilization. Then, 0.25% Triton X-100 in PBS was added for 30 minutes at room temperature to permeabilize the cell membrane. After three times PBS washing, sections were blocked by 5% goat serum for 30 minutes. Specimens were incubated with primary antibody for 1 hour at room temperature and then overnight at 4° C. Then, the unbound primary antibodies were washed out by three times PBS for 3 minutes each and corresponding secondary antibody cocktails were prepared and added to the sections for 1 hour incubation. Cell nuclear was counterstained with DAPI/anti-fade mounting medium (Vector Laboratories, #H-1200-10). Immunofluorescence images were captured using Nikon AX/AX R Confocal Microscope System with an apo 60 1.40 Oil 160/0.17 objective in the Center for Advanced Microscopy (CAM) at Northwestern University. The relative intensity of the protein signal was determined by Image J. For one slide, 3-5 fields of images were captured randomly, and the intensity of the protein signal was determined by Image J. The average quantified value of these 3-5 fields was represented as the protein signal intensity of one sample and presented as the individual point in the bar graph. Antibodies specific to CD8 (Invitrogen, #PA5-81344), CD69 (Santa Cruz Biotechnology, #sc-373799), CX3CR1 (Invitrogen, #702321), F4/80 (Cell Signaling Technology, #30325S), OLFML3 (Invitrogen, #702321), Ki67 (Cell Signaling Technology, #9129S), and CC3 (Cell Signaling Technology, #9661S) were used.

[3] = LC-MS/MS quantification of BAPN in plasma and brain; format: in vivo, C57BL/6 mice; conditions: BAPN 2 g/L in drinking water; concentration in plasma and brain after 1, 2, 4, 8 hours
Procedure: Mass spectrometry. A high-performance liquid chromatography tandem mass spectrometry (LC-MS/MS) assay was developed to quantify BAPN and SR9009 in plasma and brain of C57BL/6 mice. Specifically, the blood and brain tissues were collected after 1, 2, 4, and 8 hours of the administration of BAPN (2 g/L in drinking water) or SR9009 (100 mg/kg body weight, i.p.). The plasma was generated using the standard centrifugation techniques, and the brain tissues were pulverized by cryogenic grinding with liquid nitrogen. The plasma and brain tissue samples were mixed with internal standards, deproteinized with MeOH, and processed into LC-MS/MS to test the concentration of BAPN or SR9009. The analysis was performed at the Mass Spectrometry Core in Research Resources Center of University of Illinois at Chicago.

| Structure (SMILES) | GBM cell proliferation [1] | intratumoral CD4+ T cells [2] | intratumoral CD8+ T cells [2] | intratumoral activated CD8+ (CD8+CD69+) T cells [2] | CX3CR1+ microglia in tumors [2] | F4/80+ macrophages in tumors [2] | ability to cross the blood-brain barrier (BBB) [3] |
| --- | --- | --- | --- | --- | --- | --- | --- |
| N#CCCN [BAPN, β-aminopropionitrile] | had no such effect | increased | increased | increased | higher | lower | showed an ability to cross the blood-brain barrier |
| CCOC(=O)N1CCC(CN(Cc2ccc(Cl)cc2)Cc2ccc([N+](=O)[O-])s2)C1 (stereo not shown) [SR9009] | impaired | increased | increased | increased | reduced | did not affect | – |
